Measurements taken from patent publication US20240246946A1, “MODULATORS OF TREX1” (Constellation Pharmaceuticals, Inc., priority 2021, published 2024).

What was measured:
full length human TREX1 = target: T1, full length human TREX1 (Homo sapiens, UniProt Q9NSU2); assay: hTREX1 Biochemical Assay (fluorescence, dsDNA substrate degradation); details: biochemical, read-out: hTREX1 IC50
T1 construct: N-terminally His-Tev tagged full length human TREX1; made in house; host or cells: E. coli
T1 sequence (Q9NSU2 1-314): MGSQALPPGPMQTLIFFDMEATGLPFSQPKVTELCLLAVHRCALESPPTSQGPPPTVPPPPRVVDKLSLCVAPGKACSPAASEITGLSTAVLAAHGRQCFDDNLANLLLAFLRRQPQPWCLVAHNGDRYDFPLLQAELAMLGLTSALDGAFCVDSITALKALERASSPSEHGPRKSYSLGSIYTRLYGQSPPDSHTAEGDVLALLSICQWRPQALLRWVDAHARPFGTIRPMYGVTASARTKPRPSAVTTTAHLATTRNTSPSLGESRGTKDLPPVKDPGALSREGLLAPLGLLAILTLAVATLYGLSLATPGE
Procedure, shortened: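 Cleavage of 60 nM TEX615/quencher-labelled dsDNA in pH 7.4 Tris buffer with 5 mM MgCl2, 1.0% DMSO, run 18 hours at 25° C, EDTA-quenched; fluorescence read-out.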

full length mouse TREX1 = target: T2, full length mouse TREX1 (Mus musculus, UniProt Q91XB0); assay: mTREX1 Biochemical Assay (fluorescence, dsDNA substrate degradation); details: biochemical, read-out: mTREX1 IC50
T2 construct: N-terminally His-Tev tagged full length mouse TREX1; made in house; host or cells: E. coli
T2 sequence (Q91XB0 1-314): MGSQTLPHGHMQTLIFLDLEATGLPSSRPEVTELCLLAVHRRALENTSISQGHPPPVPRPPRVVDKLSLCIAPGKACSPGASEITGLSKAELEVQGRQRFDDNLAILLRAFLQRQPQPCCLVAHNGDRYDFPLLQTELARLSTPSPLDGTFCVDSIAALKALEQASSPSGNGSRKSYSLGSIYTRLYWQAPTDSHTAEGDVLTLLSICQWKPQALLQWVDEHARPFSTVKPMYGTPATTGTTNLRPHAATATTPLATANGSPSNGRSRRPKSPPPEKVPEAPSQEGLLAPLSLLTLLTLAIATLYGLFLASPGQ
Procedure, shortened: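 Reaction run 18 h at 25° C. with 60 nM TEX615/quencher-labelled dsDNA and 6 pM mouse TREX1 in Tris buffer (pH 7.4, 5 mM MgCl2, 1.0% DMSO), enzyme having sat 4 h with compound across 10 concentrations. EDTA quench; substrate degradation measured as fluorescence increase.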

[1] = target: T3, human TREX2 (residues M44-A279) (Homo sapiens, UniProt Q9BQ50); assay: hTREX2 Biochemical Assay (fluorescence, dsDNA substrate degradation); details: biochemical selectivity for hTREX1 vs hTREX2
T3 construct: human TREX2 (residues M44-A279, expressed in E. coli); made in house; host or cells: E. coli
T3 sequence (Q9BQ50 44-279 isoform Q9BQ50-1): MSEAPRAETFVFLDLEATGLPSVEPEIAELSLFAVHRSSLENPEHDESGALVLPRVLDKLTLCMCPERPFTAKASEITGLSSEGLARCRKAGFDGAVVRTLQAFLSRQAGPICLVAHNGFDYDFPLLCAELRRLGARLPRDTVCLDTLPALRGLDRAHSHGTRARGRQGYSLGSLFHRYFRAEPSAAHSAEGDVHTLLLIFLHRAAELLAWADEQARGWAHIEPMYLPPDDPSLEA
Procedure, shortened: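 N-His-Tev E. coli enzyme (50 pM) pre-incubated with compound 4 h at 25 °C, then 60 nM TEX615/quencher dsDNA added; 18 h at 25 °C, pH 7.4 Tris buffer with 5 mM MgCl2, 1.0% DMSO. EDTA-quenched; fluorescence 570 ex/615 em from liberated fluorophore, 10-point dose-response.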

hTREX1 = target: T4, hTREX1 (Homo sapiens, UniProt Q9NSU2); assay: hTREX1 HCT116 Cell Assay (HCT116 dual cells, Lucia luciferase reporter of Type I interferon induction); assay type: cell-based; details: TREX1i 4 h before pBR322/BstNI transfection, read after 48 h
T4 construct: host or cells: HCT116 dual cells
T4 sequence (Q9NSU2 1-314): T1 sequence (Q9NSU2 1-314)
Procedure, shortened: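 HCT116 dual cells carrying an ISRE-type STAT1/STAT2-driven secreted Lucia luciferase reporter were pretreated with TREX1 inhibitor for 4 h (≤0.1% DMSO), then transfected with pBR322/BstNI DNA (100 ng/well, Lipofectamine LTX). Luciferase in medium read after 48 h at 37 °C.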

CC(c1nc(C(=O)Nc2cnoc2)c(O)c(=O)n1C)C(c1cnn(CC(C)(C)O)c1)c1cc(F)ccc1Cl (single isomer, unassigned) [Example 92 D1E1]
IC50 (full length human TREX1): 1 to 10 nM | IC50 (full length mouse TREX1): 1 to 10 nM | hTREX1 vs hTREX2 selectivity [1]: A (A = <25 fold selective for hTREX1) | IC50 (hTREX1): > 100 nM

COC(C)(C)Cn1cc(C(c2cc(F)ccc2Cl)C(C)c2nc(C(=O)Nc3cnoc3)c(O)c(=O)n2C)cn1 (single isomer, unassigned) [Example 93 D1E1]
IC50 (full length human TREX1): 1 to 10 nM | IC50 (full length mouse TREX1): 1 to 10 nM | hTREX1 vs hTREX2 selectivity [1]: B (B = 25 to 50-fold selective for hTREX1) | IC50 (hTREX1): 10 to 100 nM

COC(C)(C)Cn1cc(C(c2cc(F)ccc2Cl)C(C)c2nc(C(=O)Nc3cnoc3)c(O)c(=O)n2C)cn1 (single isomer, unassigned) [Example 93 D1E2]
IC50 (full length human TREX1): 1 to 10 nM | IC50 (full length mouse TREX1): > 10 nM | hTREX1 vs hTREX2 selectivity [1]: A (A = <25 fold selective for hTREX1) | IC50 (hTREX1): > 100 nM

CC(c1nc(C(=O)Nc2cnoc2)c(O)c(=O)n1C)C(c1cnn(CC2COC2)c1)c1cc(F)ccc1Cl (single isomer, unassigned) [Example 94 D1E1]
IC50 (full length human TREX1): 1 to 10 nM | IC50 (full length mouse TREX1): 1 to 10 nM | hTREX1 vs hTREX2 selectivity [1]: B (B = 25 to 50-fold selective for hTREX1) | IC50 (hTREX1): > 100 nM

Cc1n[nH]c(C)c1C(c1ccccc1C#N)C(C)c1nc(C(=O)Nc2cnoc2)c(O)c(=O)n1C (single isomer, unassigned) [Example 95 D1E1]
IC50 (full length human TREX1): < 1 nM | IC50 (full length mouse TREX1): 1 to 10 nM | hTREX1 vs hTREX2 selectivity [1]: C (C = >50 fold selective for hTREX1) | IC50 (hTREX1): < 10 nM

Cc1n[nH]c(C)c1C(c1ccccc1C#N)C(C)c1nc(C(=O)Nc2cnoc2)c(O)c(=O)n1C (single isomer, unassigned) [Example 95 D1E2]
IC50 (full length human TREX1): > 10 nM | IC50 (full length mouse TREX1): > 10 nM | hTREX1 vs hTREX2 selectivity [1]: A (A = <25 fold selective for hTREX1) | IC50 (hTREX1): > 100 nM

CC(c1nc(C(=O)Nc2cnoc2)c(O)c(=O)n1C)C(c1ccccc1Cl)c1cnn(C)c1C#N (single isomer, unassigned) [Example 96 D1E1]
IC50 (full length human TREX1): < 1 nM | IC50 (full length mouse TREX1): 1 to 10 nM | hTREX1 vs hTREX2 selectivity [1]: A (A = <25 fold selective for hTREX1) | IC50 (hTREX1): > 100 nM

CC(c1nc(C(=O)Nc2cnoc2)c(O)c(=O)n1C)C(c1ccccc1Cl)c1cnn(C)c1C#N (single isomer, unassigned) [Example 96 D2E2]
IC50 (full length human TREX1): < 1 nM | IC50 (full length mouse TREX1): 1 to 10 nM | hTREX1 vs hTREX2 selectivity [1]: C (C = >50 fold selective for hTREX1) | IC50 (hTREX1): < 10 nM

COCCn1cc(C(c2cc(F)ccc2Cl)C(C)c2nc(C(=O)Nc3cnoc3)c(O)c(=O)n2C)cn1 (single isomer, unassigned) [Example 97 D1E1]
IC50 (full length human TREX1): 1 to 10 nM | IC50 (full length mouse TREX1): 1 to 10 nM | hTREX1 vs hTREX2 selectivity [1]: C (C = >50 fold selective for hTREX1) | IC50 (hTREX1): > 100 nM

CC(c1nc(C(=O)Nc2cnoc2)c(O)c(=O)n1C)C(c1cnn(CCOC(F)(F)F)c1)c1cc(F)ccc1Cl (single isomer, unassigned) [Example 98 D1E1]
IC50 (full length human TREX1): 1 to 10 nM | IC50 (full length mouse TREX1): 1 to 10 nM | hTREX1 vs hTREX2 selectivity [1]: B (B = 25 to 50-fold selective for hTREX1) | IC50 (hTREX1): > 100 nM

CC(c1nc(C(=O)Nc2cnoc2)c(O)c(=O)n1C)C(c1cnn(CC(C)(C)C#N)c1)c1cc(F)ccc1Cl (single isomer, unassigned) [Example 99 D1E1]
IC50 (full length human TREX1): 1 to 10 nM | IC50 (full length mouse TREX1): > 10 nM | hTREX1 vs hTREX2 selectivity [1]: A (A = <25 fold selective for hTREX1) | IC50 (hTREX1): > 100 nM

CC(c1nc(C(=O)Nc2cnoc2)c(O)c(=O)n1C)C(c1cnn(C(C)(C)CC#N)c1)c1cc(F)ccc1Cl (single isomer, unassigned) [Example 100 D1E1]
IC50 (full length human TREX1): 1 to 10 nM | IC50 (full length mouse TREX1): 1 to 10 nM | hTREX1 vs hTREX2 selectivity [1]: A (A = <25 fold selective for hTREX1) | IC50 (hTREX1): > 100 nM

CC(c1nc(C(=O)Nc2cnoc2)c(O)c(=O)n1C)C(c1cnn(CCOC(F)(F)F)c1)c1cc(F)ccc1C#N (single isomer, unassigned) [Example 101 D1E2]
IC50 (full length human TREX1): < 1 nM | IC50 (full length mouse TREX1): 1 to 10 nM | hTREX1 vs hTREX2 selectivity [1]: C (C = >50 fold selective for hTREX1) | IC50 (hTREX1): 10 to 100 nM

CC(c1nc(C(=O)Nc2cnoc2)c(O)c(=O)n1C)C(c1cnn(CC(F)F)c1)c1cc(F)ccc1C#N (single isomer, unassigned) [Example 102 D1E2]
IC50 (full length human TREX1): < 1 nM | IC50 (full length mouse TREX1): 1 to 10 nM | hTREX1 vs hTREX2 selectivity [1]: B (B = 25 to 50-fold selective for hTREX1) | IC50 (hTREX1): 10 to 100 nM

COCCn1cc(C(c2cc(F)ccc2C#N)C(C)c2nc(C(=O)Nc3cnoc3)c(O)c(=O)n2C)c(C)n1 (single isomer, unassigned) [Example 103 D1E1]
IC50 (full length human TREX1): > 10 nM | IC50 (full length mouse TREX1): > 10 nM | hTREX1 vs hTREX2 selectivity [1]: A (A = <25 fold selective for hTREX1) | IC50 (hTREX1): > 100 nM

COCCn1cc(C(c2cc(F)ccc2C#N)C(C)c2nc(C(=O)Nc3cnoc3)c(O)c(=O)n2C)c(C)n1 (single isomer, unassigned) [Example 103 D1E2]
IC50 (full length human TREX1): < 1 nM | IC50 (full length mouse TREX1): < 1 nM | hTREX1 vs hTREX2 selectivity [1]: C (C = >50 fold selective for hTREX1) | IC50 (hTREX1): 10 to 100 nM

COCCn1cc(C(c2cc(F)ccc2C#N)C(C)c2nc(C(=O)Nc3cnoc3)c(O)c(=O)n2C)c(C)n1 (single isomer, unassigned) [Example 103 D2E1]
IC50 (full length human TREX1): 1 to 10 nM | IC50 (full length mouse TREX1): > 10 nM | hTREX1 vs hTREX2 selectivity [1]: A (A = <25 fold selective for hTREX1) | IC50 (hTREX1): > 100 nM

COCCn1ncc(C(c2cc(F)ccc2C#N)C(C)c2nc(C(=O)Nc3cnoc3)c(O)c(=O)n2C)c1C (single isomer, unassigned) [Example 104 D1E1]
IC50 (full length human TREX1): 1 to 10 nM | IC50 (full length mouse TREX1): 1 to 10 nM | hTREX1 vs hTREX2 selectivity [1]: B (B = 25 to 50-fold selective for hTREX1) | IC50 (hTREX1): > 100 nM

CC(c1nc(C(=O)Nc2cnoc2)c(O)c(=O)n1C)C(c1cnn(C(C)C)c1)c1ccccc1C#N (single isomer, unassigned) [Example 105 D2E1]
IC50 (full length human TREX1): 1 to 10 nM | IC50 (full length mouse TREX1): > 10 nM | hTREX1 vs hTREX2 selectivity [1]: A (A = <25 fold selective for hTREX1) | IC50 (hTREX1): > 100 nM

CC(c1nc(C(=O)Nc2cnoc2)c(O)c(=O)n1C)C(c1cnn(C2COC2)c1)c1ccccc1C#N (single isomer, unassigned) [Example 106 D1E1]
IC50 (full length human TREX1): < 1 nM | IC50 (full length mouse TREX1): 1 to 10 nM | hTREX1 vs hTREX2 selectivity [1]: B (B = 25 to 50-fold selective for hTREX1) | IC50 (hTREX1): 10 to 100 nM
